The assay deals with BCL6 (Homo sapiens (Human), UniProt P41182). The assay is described as follows: assays described in the Examples section (not specified which). The settings on record: tested compounds outside desired/preferred activity. As for the experimental part:
DC50 values (compound concentration at which 50% of endogenous BCL6 protein is degraded) were determined in SUDHL-4 cells (American Type Culture Collection) in an immunofluorescence-based assay using an InCell2200 high content imaging system (GE Healthcare). Briefly, 40 μL of lymphoma suspension cells cultured in RPMI 1640-10% FBS (Sigma-Aldrich or PAN Biotech UK Ltd) were platted on fibronectin (Sigma catalogue F1141)-coated 384 well Cell Carrier Ultra plate (Perkin Elmer catalogue 6057300) at 1.2 104 cells/well. After 20 hours cell culture at 37° C./C02 incubator, compounds were dispensed in the cell culture plate using ECHO550 acoustic dispenser (Labcyte, Inc.), as 8 point-concentration response (ranging from 5 nM to 10 μM) in 0.67% final DMSO concentration. Cells were incubated with compound for 2 hours at 37° C./C02 incubator followed by fixation in 4.5% formaldehyde (37% formaldehyde solution, Sigma catalogue F8775) at room temperature for 15 min. After fixing, cells were washed in 1×TBS (Tris Buffer Saline) using a Power Washer 384 (Tecan Group Ltd). Blocking and cell permeabilisation were performed by incubating the fixed cells for 1 hour at room temperature in 1×TBS, 5% BSA, 1% Triton X100, followed by three washes on PW384 plate washer. Primary and secondary antibodies were prepared in 1×TBS, 1% BSA, 0.2% Triton X100. BCL6 expression was detected by incubating the cells for 1 h30 with BCL6 rabbit polyclonal antibody (Sigma Catalogue HPA004899) at 1:250, 0.8 μg/ml, followed by 1 hour in chicken anti-Rabbit Alexa 488 conjugated antibody (Life Technology) at 1:500. After incubation in each antibody, cells were washes four times in 1×TBS-0.05% tween on PW384 plate washer. Cells were finally incubated for 60 min with nuclear staining RedDot2 dye (Biotium) at 0.5× the stock concentration in 1×TBS. BCL6 expression in the absence or presence of compound was detected on InCell2200 with 20× objective and quantified on InCell Analyser 3.7.2 workstation (GE Healthcare). The % response at each concentration was calculated by normalising BCL6 expression in the presence of compound to the appropriate high (DMSO) and low (DMSO with 7 μM CCT369260) controls.
The volume of medium containing 2000 cells in the control well was calculated and this volume of cells was transferred from every well of the assay plates to the corresponding well of the fresh plates containing compound. After 14 days, CellTiter Glo reagent (Promega) was added to the medium in each well of the assay plate at a ratio of 1:2, mixed on a plate shaker, then incubated at room temperature for 10 minutes. Luminescence was measured using an Envision plate reader (Perkin Elmer) and the relative luminescence at each compound concentration, compared to DMSO alone, was calculated. IC50 were determined using a 4-parameter curve fit in Dotmatics (Bishops Stortford, UK).
Take `CNC(=O)CNc1cc(=O)[nH]c2ccc(Nc3ccnc(Cl)c3C#N)cc12` [2-((6-((2-chloro-3-cyanopyridin-4-yl)amino)-2-oxo-1,2-dihydroquinolin-4-yl)amino)-N-methylacetamide]: the “activity in the assays described in the Examples section” value (“activity in the assays described” below) is “did not exhibit the desired activity”.

For the molecule `Cn1c(=O)cc(NC2CCCNC2=O)c2cc(Nc3ccnc(Cl)c3C#N)ccc21` (centres unmarked) [2-chloro-4-((1-methyl-2-oxo-4-((2-oxopiperidin-3-yl)amino)-1,2-dihydroquinolin-6-yl)amino)nicotinonitrile], the “activity in the assays described” value was “did not exhibit the desired activity”.

`CN1CCC(Nc2cc(=O)n(C)c3ccc(Nc4ccnc(Cl)c4C#N)cc23)C1=O` (centres unmarked) [2-chloro-4-((1-methyl-4-((1-methyl-2-oxopyrrolidin-3-yl)amino)-2-oxo-1,2-dihydroquinolin-6-yl)amino)nicotinonitrile]: the “activity in the assays described” value is listed as “not to exhibit the preferred activity”.

Regarding `CC(Nc1cc(=O)[nH]c2ccc(Nc3ccnc(Cl)c3C#N)cc12)c1cnn(C)c1` (centres unmarked) [2-chloro-4-((4-((1-(1-methyl-1H-pyrazol-4-yl)ethyl)amino)-2-oxo-1,2-dihydroquinolin-6-yl)amino)nicotinonitrile], the “activity in the assays described” value is “did not exhibit the desired activity”.

Take `CC(CN(C)C)Nc1cc(=O)n(C)c2ccc(Nc3ccnc(Cl)c3C#N)cc12` (centres unmarked) [2-chloro-4-((4-((1-(dimethylamino)propan-2-yl)amino)-1-methyl-2-oxo-1,2-dihydroquinolin-6-yl)amino)nicotinonitrile]: the “activity in the assays described” value is reported as “did not exhibit the desired activity”.

In the case of `CCNc1cc(=O)n(C)c2ccc(Nc3ccnc(Cl)c3C#N)nc12` [2-chloro-4-((8-(ethylamino)-5-methyl-6-oxo-5,6-dihydro-1,5-naphthyridin-2-yl)amino)nicotinonitrile], the “activity in the assays described” value was “not to exhibit the preferred activity”.

With `Cn1c(=O)cc(NCc2ncccn2)c2cc(Nc3ccnc(Cl)c3C#N)ccc21` [2-chloro-4-[[1-methyl-2-oxo-4-(pyrimidin-2-ylmethylamino)-6-quinolyl]amino]pyridine-3-carbonitrile], the “activity in the assays described” value is reported as “not to exhibit the preferred activity”.

On to `CC(Nc1cc(=O)n(C)c2ccc(Nc3nc(N4C[C@H](C)C[C@H](C)C4)nc(C(F)(F)F)c3Cl)cc12)c1ncccn1` (stereo partly drawn) [6-((5-chloro-2-((3S,5R)-3,5-dimethylpiperidin-1-yl)-6-(trifluoromethyl)pyrimidin-4-yl)amino)-1-methyl-4-((1-(pyrimidin-2-yl)ethyl)amino)quinolin-2(1H)-one], for which the “activity in the assays described” value is reported as “not to exhibit the preferred activity”.
